Measurements taken from patent US20230348424A1, “HETEROCYCLIC COMPOUNDS AND METHODS OF USE” (Schrödinger, Inc., priority 2022, published 2023).

How the values were obtained:
[1] = target: human SOS1 (Homo sapiens (Human), UniProt Q07889); experiment: Surface Plasmon Resonance (SPR) SOS1 Binding Assay; details: biotinylated SOS1 (res. 564-1049), Biacore 8K, 25° C., kinetic or steady state fit, 1:1 binding; read-out: hSOS1 KD
Experimental: Binding to SOS1 was measured using a SPR assay with purified recombinant human SOS1 substrate (res. 564-1049 with N-terminal Avi tag; purified and biotinylated based on Hillig, et al., Proc Natl Acad Sci USA (2019); 116(7):2551-2560). SPR measurements were performed on a Biacore 8K SPR instrument (GE Healthcare, Sweden). Assays were performed at 25° C. using Series S SA sensor chips pre-coated with streptavidin (GE Healthcare, Cat. BR100531). Biotinylated SOS1 diluted in sample buffer (20 mM Tris HCI, 150 mM NaCl, 1 mM DTT, 0.05% TWEEN 20, 1 mM MgCh, pH 8.0) was captured to one flow cell of the chip to about 3,000 resonance units (RU) using sample buffer supplemented with 5% DMSO as a running buffer. Serial dilutions of the assayed compounds in the running buffer at 100, 50 or 0.5 µM were injected for 60 s at a flow rate of 30 µL/min and association phases were recorded. Dissociation of the samples was monitored for 600 s. Data processing was performed using Biacore Insight Software (Biacore, GE Healthcare). Sensorgrams recorded on a SA flow cell without captured protein were subtracted from sensorgrams recorded on the SOS1 surface. Blank injections of running buffer were used for double referencing and solvent correction was applied to all sample sensorgrams to correct for buffer mismatches. KDS were estimated using a kinetic or steady state, where applicable, fitting model describing a reversible equilibrium with 1:1 binding between SOS1 and the compound.

[2] = target: SOS1:KRAS (G12C) interaction (Homo sapiens (Human), UniProt Q07889); experiment: SOS1 KRas(G12C) FRET Assay; type: binding; details: 0.5 nM His10-SOS1 (res. 564-1049), 2.5 nM GST-KRAS G12C (res. 1-169), 2 hrs at RT
Chain of SOS1:KRAS (G12C) interaction (Q07889 564-1049, stated change not applied): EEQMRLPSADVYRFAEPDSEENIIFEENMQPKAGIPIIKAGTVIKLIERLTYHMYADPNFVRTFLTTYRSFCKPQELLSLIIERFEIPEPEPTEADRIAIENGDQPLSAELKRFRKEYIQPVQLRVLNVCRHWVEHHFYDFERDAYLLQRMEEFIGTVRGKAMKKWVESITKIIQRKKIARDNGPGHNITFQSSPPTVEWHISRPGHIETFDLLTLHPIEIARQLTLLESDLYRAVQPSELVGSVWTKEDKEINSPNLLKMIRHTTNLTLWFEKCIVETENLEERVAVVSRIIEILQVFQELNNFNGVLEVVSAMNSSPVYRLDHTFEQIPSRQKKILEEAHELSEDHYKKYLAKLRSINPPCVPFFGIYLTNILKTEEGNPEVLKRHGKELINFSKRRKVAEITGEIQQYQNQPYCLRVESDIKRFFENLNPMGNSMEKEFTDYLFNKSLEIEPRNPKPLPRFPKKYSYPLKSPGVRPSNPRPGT
How it was run: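 GST-KRAS G12C (res. 1-169) at 2.5 nM and His10-SOS1 (res. 564-1049) at 0.5 nM, final, in PBS with 0.1% BSA, 5 mM MgCl2, 100 mM KF, 5 mM DTT and 0.5% DMSO. After 2 h at RT, FRET read at 665/615 nm and normalized to DMSO and no-SOS1 controls. IC50 by non-linear regression.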

Chain of human SOS1 (Q07889 564-1049): as the sequence (Q07889 564-1049, stated change not applied) above

Compound	Kd [1] [nM]	IC50 [2] [nM]
C[C@@H](NC(=O)c1cn([C@H]2C[C@@H]2C2CC2)c(=O)cc1N[C@H]1[C@@H]2CN(C)C[C@@H]21)c1cccc(C(F)F)c1F (single isomer, unassigned) [Example 72]	3	9.7
Cc1c([C@@H](C)NC(=O)c2cn(C3(C(F)F)CC3)c(=O)cc2NC2CCN(C)CC2)cccc1C(F)(F)F [Example 50, (R)-1-(1-(difluoromethyl)cyclopropyl)-N-(1-(2-methyl-3-(trifluoromethyl)phenyl)ethyl)-4-((1-methylpiperidin-4-yl)amino)-6-oxo-1,6-dihydropyridine-3-carboxamide]	8	20.3
Cc1c([C@@H](C)NC(=O)c2cn(C3CCOCC3)c(=O)cc2N[C@@H]2CC[C@@H](O)C2)cccc1C(F)(F)F [Example 14, 4-(((1R,3R)-3-hydroxycyclopentyl)amino)-N-((R)-1-(2-methyl-3-(trifluoromethyl)phenyl)ethyl)-6-oxo-1-(tetrahydro-2H-pyran-4-yl)-1,6-dihydropyridine-3-carboxamide]	103	225
C[C@@H](NC(=O)c1cn([C@H]2CCOC[C@@H]2F)c(=O)cc1NC1CCN(C)CC1)c1cccc(C(F)F)c1F [Example 80, N-((R)-1-(3-(difluoromethyl)-2-fluorophenyl)ethyl)-1-((3R,4S)-3-fluorotetrahydro-2H-pyran-4-yl)-4-((1-methylpiperidin-4-yl)amino)-6-oxo-1,6-dihydropyridine-3-carboxamide]	8	16.7
C[C@@H](NC(=O)c1cn(C2(C(F)F)CC2)c(=O)cc1NC1CCN(C)CC1)c1cccc(C(F)F)c1F [Example 49, (R)-N-(1-(3-(difluoromethyl)-2-fluorophenyl)ethyl)-1-(1-(difluoromethyl)cyclopropyl)-4-((1-methylpiperidin-4-yl)amino)-6-oxo-1,6-dihydropyridine-3-carboxamide]	3	13.5
Cc1c([C@@H](C)NC(=O)c2cn(C3CCOCC3)c(=O)cc2NCc2cncn2C)cccc1C(F)(F)F [Example 10, (R)-4-(((1-methyl-1H-imidazol-5-yl)methyl)amino)-N-(1-(2-methyl-3-(trifluoromethyl)phenyl)ethyl)-6-oxo-1-(tetrahydro-2H-pyran-4-yl)-1,6-dihydropyridine-3-carboxamide]	74	73
C[C@@H](NC(=O)c1cn(C23CC(C2)C3)c(=O)cc1N[C@@H]1CN2CCC1CC2)c1cccc(C(F)F)c1F [Example 156, 1-(bicyclo[1.1.1]pentan-1-yl)-N-((R)-1-(3-(difluoromethyl)-2-fluorophenyl)ethyl)-6-oxo-4-(((S)-quinuclidin-3-yl)amino)-1,6-dihydropyridine-3-carboxamide]	3	12.4
Cc1c([C@@H](C)NC(=O)c2cn(C3CCOCC3)c(=O)c(C#N)c2NC2CCN(C)CC2)cccc1C(F)(F)F [Example 20, (R)-5-cyano-N-(1-(2-methyl-3-(trifluoromethyl)phenyl)ethyl)-4-((1-methylpiperidin-4-yl)amino)-6-oxo-1-(tetrahydro-2H-pyran-4-yl)-1,6-dihydropyridine-3-carboxamide]	10.4	22.7
C[C@@H](NC(=O)c1cn(C2(C(F)F)CC2)c(=O)cc1N[C@H]1CCNC[C@H]1F)c1cccc(C(F)F)c1F (single isomer, unassigned) [Example 70]	4	12.7
CNc1cc(=O)n(C2CCOCC2)cc1C(=O)N[C@H](C)c1cccc(C(F)(F)F)c1C [Example 12, (R)-N-(1-(2-methyl-3-(trifluoromethyl)phenyl)ethyl)-4-(methylamino)-6-oxo-1-(tetrahydro-2H-pyran-4-yl)-1,6-dihydropyridine-3-carboxamide]	245	705

Results, then the compound that gave them:

Kd [1] [nM]	IC50 [2] [nM]	Compound
30	64.8	CC(C)n1cc(C(=O)N[C@H](C)c2cccc(C(F)F)c2F)c(N[C@H]2[C@@H]3CN(C)C[C@@H]32)cc1=O [Example 99, N-((R)-1-(3-(difluoromethyl)-2-fluorophenyl)ethyl)-1-isopropyl-4-(((1R,5S,6s)-3-methyl-3-azabicyclo[3.1.0]hexan-6-yl)amino)-6-oxo-1,6-dihydropyridine-3-carboxamide]
37	35.2	C[C@@H](NC(=O)c1cn([C@@H]2CCC2(F)F)c(=O)cc1N[C@H]1[C@@H]2CN(C)C[C@@H]21)c1cccc(C(F)(F)F)c1F (single isomer, unassigned) [Example 145]
9	16.1	C[C@@H](NC(=O)c1cn([C@@H]2CC2(F)F)c(=O)cc1N[C@H]1[C@@H]2CN(C)C[C@@H]21)c1cccc(C(F)F)c1F (single isomer, unassigned) [Example 92]
6	10.5	C[C@@H](NC(=O)c1cn([C@H]2C[C@@H]2C(F)F)c(=O)cc1N[C@H]1[C@@H]2CN(C)C[C@@H]21)c1cccc(C(F)F)c1F [Example 113, N-((R)-1-(3-(difluoromethyl)-2-fluorophenyl)ethyl)-1-((1S,2S)-2-(difluoromethyl)cyclopropyl)-4-(((1R,5S,6s)-3-methyl-3-azabicyclo[3.1.0]hexan-6-yl)amino)-6-oxo-1,6-dihydropyridine-3-carboxamide]
13	23.2	C[C@@H](NC(=O)c1cn([C@H]2CC2(F)F)c(=O)cc1N[C@H]1[C@@H]2CN(C)C[C@@H]21)c1cccc(C(F)F)c1F [Example 93, 1-((S)-2,2-difluorocyclopropyl)-N-((R)-1-(3-(difluoromethyl)-2-fluorophenyl)ethyl)-4-(((lR,5S,6s)-3-methyl-3-azabicyclo[3.1.0]hexan-6-yl)amino)-6-oxo-1,6-dihydropyridine-3-carboxamide]
8	10.3	C[C@@H](NC(=O)c1cn(C23CCC(CC2)C3)c(=O)cc1N[C@H]1[C@@H]2CN(C)C[C@@H]21)c1cccc(C(F)F)c1F [Example 132, 1-(bicyclo[2.2.1]heptan-1-yl)-N-((R)-1-(3-(difluoromethyl)-2-fluorophenyl)ethyl)-4-(((1R,5S,6s)-3-methyl-3-azabicyclo[3.1.0]hexan-6-yl)amino)-6-oxo-1,6-dihydropyridine-3-carboxamide]
25	58.4	CO[C@H]1CN(C)CC[C@H]1Nc1cc(=O)n(C2(C(F)F)CC2)cc1C(=O)N[C@H](C)c1cccc(C(F)F)c1F [Example 153, N-((R)-1-(3-(difluoromethyl)-2-fluorophenyl)ethyl)-1-(1-(difluoromethyl)cyclopropyl)-4-(((3S,4R)-3-methoxy-1-methylpiperidin-4-yl)amino)-6-oxo-1,6-dihydropyridine-3-carboxamide]
343	147	C[C@@H](NC(=O)c1cn(C(C)(C)C2CC2)c(=O)cc1N[C@H]1[C@@H]2CN(C)C[C@@H]21)c1cccc(C(F)F)c1F [Example 108, 1-(2-cyclopropylpropan-2-yl)-N-((R)-1-(3-(difluoromethyl)-2-fluorophenyl)ethyl)-4-(((1R,5S,6s)-3-methyl-3-azabicyclo[3.1.0]hexan-6-yl)amino)-6-oxo-1,6-dihydropyridine-3-carboxamide]
84	61.7	C[C@H](Nc1cc(=O)n(C2(C(F)F)CC2)cc1C(=O)N[C@H](C)c1cccc(C(F)F)c1F)c1cncn1C [Example 87, N-((R)-1-(3-(difluoromethyl)-2-fluorophenyl)ethyl)-1-(1-(difluoromethyl)cyclopropyl)-4-(((S)-1-(1-methyl-1H-imidazol-5-yl)ethyl)amino)-6-oxo-1,6-dihydropyridine-3-carboxamide]
13	27.7	C[C@@H](NC(=O)c1cn(C2(C(F)F)CC2)c(=O)cc1N[C@H]1C[C@@H]2CN(C)C[C@@H]2C1)c1cccc(C(F)F)c1F [Example 125, N-((R)-1-(3-(difluoromethyl)-2-fluorophenyl)ethyl)-1-(1-(difluoromethyl)cyclopropyl)-4-(((3aR,5s,6aS)-2-methyloctahydrocyclopenta[c]pyrrol-5-yl)amino)-6-oxo-1,6-dihydropyridine-3-carboxamide]
11	26.7	C[C@@H](NC(=O)c1cn([C@@H]2CC23CC3)c(=O)cc1N[C@H]1[C@@H]2CN(C)C[C@@H]21)c1cccc(C(F)F)c1F (single isomer, unassigned) [Example 116]
25	49.7	C[C@@H](NC(=O)c1cn(C2(C(F)(F)F)CC2)c(=O)cc1N[C@H]1[C@@H]2CC[C@H]1CN(C)C2)c1cccc(C(F)F)c1F (single isomer, unassigned) [Example 139]
